Entries after “also recorded” stand apart in the source; their conditions may differ. Where two headings read alike, the source gives them in different places.
Assays:
OATP1B1 [1] = conditions: cited from earlier work
OATP1B1 H555F = conditions: H555 F variant; cited from earlier work
OATP1B3 F555H = conditions: F555H mutation; cited from earlier work
OATP1B1 [2] = assay type: cell-based, human; conditions: HEK293 over-expressing OATP1B1; substrate not specified at the place

## C=CC1=C(C)/C(=C/c2[nH]c(Cc3[nH]c(/C=C4\NC(=O)C(C)=C4C=C)c(C)c3CCC(=O)O)c(CCC(=O)O)c2C)NC1=O [bilirubin]
OATP1B1 [1]; no reference given
  inhibition of and transport by OATP1B1: is a natural transport substrate, but does not inhibit transport

## CO[C@H]1/C=C/O[C@@]2(C)Oc3c(C)c(O)c4c(O)c(c(/C=N/N5CCN(C)CC5)c(O)c4c3C2=O)NC(=O)/C(C)=C\C=C\[C@H](C)[C@H](O)[C@@H](C)[C@@H](O)[C@@H](C)[C@H](OC(C)=O)[C@@H]1C [rifampicin]
OATP1B1 [1]
  inhibition of and transport by OATP1B1: both inhibits and is transported by OATP1B1

## cholecystokinin-8: called an OATP1B1-specific substrate
OATP1B1 H555F
  uptake by OATP1B1: abolished

## O=C(O[C@@H]1Cc2c(O)cc(O)cc2O[C@@H]1c1cc(O)c(O)c(O)c1)c1cc(O)c(O)c(O)c1 [EGCG, epigallocatechin gallate]
OATP1B3 F555H
  EGCG transport by OATP1B3: significantly reduced

B1: Sb5: synthetic nanobody (sybody) that binds to OATP1B1 in both its apo and cyclosporine A-bound forms (antibody, V domains shown)
VH: QVQLVESGGGLVQAGGSLRLSCAASGFPVNLSYMHWYRQAPGKEREWVAAISSWGWHTEYADSVKGRFTISRDNAKNTVYLQMNSLKPEDTAVYYCHVRVGRSYFGQGTQVSVSA
OATP1B1 [2]
  inhibition of OATP1B1 substrate transport: does not impair the ability of OATP1B1 to transport substrates; also recorded: did not inhibit substrate transport by OATP1B1

From paper PMC12127550 (The Journal of Biological Chemistry, 2025)
